Positions of bridges follow the written chain, without caps; N, C: chain ends. Non-standard residues stand in square brackets, D forms with d. Residues, ends and D or L forms follow the SMILES beside them.
Legend:
GDP-bound Gαs = target: T1, GDP-bound Gαs (Homo sapiens, UniProt P63092); assay: Bio-layer interferometry (BLI) binding kinetics
T1 construct: hexahistidine (N, cleaved yes); made in house; host or cells: Escherichia coli BL21(DE3)
Method: (§1) BLI experiments were performed using an OctetRED384 instrument from ForteBio. All experiments were performed at 25° C. using BLI buffer (10 mM HEPES pH 7.4, 150 mM NaCl, 1 mM MgCl2, 0.05% Tween-20, 0.1% DMSO, 0.2 mM GppNHp or GDP). Cyclic peptides were diluted to a series of concentrations in BLI buffer plus 10 μM Biotin. Assays were conducted in Greiner 384well, black, flat bottom polypropylene plates containing the protein solutions, BLI buffer plus 10 μM Biotin for dissociation, and serial dilutions of cyclic peptides to be tested.
(§2) Biotinylated proteins were immobilized on Streptavidin biosensors by dipping sensors into plate wells containing protein solutions at a concentration of 100-150 nM. Protein loading is around 2-3 nm. Sensors loaded with proteins were moved and dipped into wells with BLI buffer plus 10 μM Biotin to block unlabeled Streptavidin. Association-dissociation cycles of compounds were started by moving and dipping sensors to cyclic peptides dilutions and BLI buffer plus 10 μM Biotin wells alternatively. Association and dissociation times were carefully determined to ensure full association and dissociation.
(§3) Raw kinetic data collected were processed with the Data Analysis software provided by the manufacturer using single reference subtraction in which buffer-only reference was subtracted (For GN13 analysis). Because GD20 analogs have a low level of background binding, we used a double reference subtraction (buffer-only reference and non-protein-loading reference) method to calculate their kinetics values. The resulting data were analyzed based on a 1:1 binding model from which kon and koff values were obtained and then Kd values were calculated.

[1] = Chemical stability assay in DMEM with 10% FBS; assay type: in vitro ADME; conditions: bovine, 37° C., values represent 95% confidence intervals
Method: These assays were conducted by Pharmaron Beijing CO., Ltd. Cyclic peptides working solutions were prepared at 10 μM in DMEM with 10% FBS (Avantor, Cat #76294-180) or human plasma (Pooled, Male & Female, BioIVT, Cat #HMN666664). The assays were performed in duplicate. Vials were incubated at 37° C. at 60 rpm in a water bath and taken at designated time points including 0, 480, 1080 and 1440 min. For each time point, the initiation of the reaction was staggered so all the time points were terminated with cold acetonitrile containing internal standards (IS, 100 nM alprazolam, 200 nM labetalol, 200 nM Imipramine and 2 μM ketoplofen) at the same time. Samples were vortexed then centrifuged at 4° C. to remove proteins. The supernatants from centrifugation were diluted by ultra-pure H2O and used for LC-MS/MS analysis. All calculations were carried out using GraphPad Prism. Remaining percentages of parent compounds at each time point were estimated by determining the peak area ratios from extractedion chromatograms.

Gαi = Gαi (Homo sapiens, UniProt P63096); assay: Nucleotide exchange step (GDP dissociation / GTPγS binding); assay type: biochemical; conditions: compared with Gαs
Method: Gα proteins were diluted to 400 nM in the EDTA buffer (20 mM HEPES 7.5, 150 mM NaCl, 1 mM EDTA-Na 8.0, 2 mM DTT). [^3H]GDP (1 mCi/mL, 25.2 μM) was added to a final concentration of 1.2 μM, followed by cyclic peptides addition. After incubation at 20° C. for 30 minutes, the same volume of assay buffer ([…] HEPES-Na 7.5, 150 mM NaCl, 2 mM MgCl2, and 1 mM GDP) was added to initiate [^3H]GDP dissociation. At various points, […] was removed and mixed with 390 μL of ice-cold wash buffer (20 mM HEPES 7.5, 150 mM NaCl, 20 mM MgCl2). The mixture was immediately filtered through a mixed cellulose membrane (25 mm, 0.22 μm) held by a microanalysis filter holder (EMD Millipore). The membrane was washed by ice-cold wash buffer (500 μL×3), put in a 6-mL plastic vial and air-dried (room temperature 1.5 h). 5 mL of CytoScint-ES Liquid Scintillation Cocktail was added to each vial. After incubation overnight at room temperature, the vial was used for liquid scintillation counting with a LS 6500 Multi-Purpose Scintillation Counter.
Gα proteins were diluted to 10 μM with dilution buffer (20 mM HEPES 7.5, 150 mM NaCl, 1 mM MgCl2, 2 mM DTT, and 20 μM GDP) and incubated with 5× stocks of cyclic peptides at room temperature for 2 hours. GTPγS binding was initiated by mixing with the reaction buffer at room temperature (50 nM [35S]GTPγS and 100 μM GTPγS in dilution buffer) at room temperature. […]

Gαs = Gαs (Homo sapiens, UniProt P63092); assay: GTPγS binding assay ([35S]GTPγS); assay type: biochemical; set-up: made in house; host or cells: Escherichia coli BL21(DE3)
Method: Gα proteins were diluted to 10 μM with dilution buffer (20 mM HEPES 7.5, 150 mM NaCl, 1 mM MgCl2, 2 mM DTT, and 20 μM GDP) and incubated with 5× stocks of cyclic peptides at room temperature for 2 hours. GTPγS binding was initiated by mixing with the reaction buffer at room temperature (50 nM [35S]GTPγS and 100 μM GTPγS in dilution buffer) at room temperature. At various time points, 10 μL of the sample was removed and mixed with 390 μL of ice-cold wash buffer (20 mM HEPES 7.5, 150 mM NaCl, 20 mM MgCl2). The mixture was filtered through a mixed cellulose membrane (25 mm, 0.22 μm). The membrane was washed by ice-cold wash buffer (500 μL×3), put in a 6-mL plastic vial and air-dried (room temperature 1.5 h). 5 mL of CytoScint-ES Liquid Scintillation Cocktail (MP Biomedicals) was added to each vial. After incubation overnight at room temperature, the vial was used for liquid scintillation counting with a LS 6500 Multi-Purpose Scintillation Counter. A standard curve was generated using [35S]GTPγS. The radioactive activity (Counts per minute) of the samples were converted to the GTPγS concentration. The GTPγS binding curves were fitted by the software GraphPad Prism using the following equation to calculate the apparent GTPγS binding rates (kapp): […]
in which “Y” is the concentration of GTPγS that bound to Gα protein at time “X” (minutes).

adenylyl cyclase = target: T2, adenylyl cyclase (Homo sapiens, UniProt O95622+Q08462); assay: Forskolin-mediated, Gαs-independent adenylyl cyclase activation; assay type: biochemical
T2 construct: C1 domain (residues 442-658, VC1) of human ADCY5; C2 domain (residues 871-1082, IIC2) of human ADCY2; made in house; host or cells: Escherichia coli BL21(DE3)

GDP-bound Gαi1 = target: T3, GDP-bound Gαi1 (Homo sapiens, UniProt P63096); assay: Bio-layer interferometry (BLI) binding; conditions: highest concentration tested
T3 construct: hexahistidine (N, cleaved yes); made in house; host or cells: Escherichia coli BL21(DE3)
Method: as §1, §2, §3

GppNHp-bound Gαi1 = target: T4, GppNHp-bound Gαi1 (Homo sapiens, UniProt P63096); assay: Bio-layer interferometry (BLI) binding; conditions: highest concentration tested
T4 construct: hexahistidine (N, cleaved yes); made in house; host or cells: Escherichia coli BL21(DE3)
Method: as §1, §2, §3

[2] = target: T5, GTP- and GppNHp-bound Gαs Q227L mutant (Homo sapiens, UniProt P63092, Q227L); assay: Adenylyl cyclase activation assay with oncogenic mutant; assay type: biochemical
T5 construct: made in house; host or cells: Escherichia coli BL21(DE3)
Source text: Gαs is one of the most frequently mutated G proteins in human cancer. Hotspot mutations in Gαs (Q227) disrupt its GTPase activity, thereby locking Gαs in the GTP-bound active conformation (Zachary et al., 1990).

Sequence of Gαi (P63096 whole entry): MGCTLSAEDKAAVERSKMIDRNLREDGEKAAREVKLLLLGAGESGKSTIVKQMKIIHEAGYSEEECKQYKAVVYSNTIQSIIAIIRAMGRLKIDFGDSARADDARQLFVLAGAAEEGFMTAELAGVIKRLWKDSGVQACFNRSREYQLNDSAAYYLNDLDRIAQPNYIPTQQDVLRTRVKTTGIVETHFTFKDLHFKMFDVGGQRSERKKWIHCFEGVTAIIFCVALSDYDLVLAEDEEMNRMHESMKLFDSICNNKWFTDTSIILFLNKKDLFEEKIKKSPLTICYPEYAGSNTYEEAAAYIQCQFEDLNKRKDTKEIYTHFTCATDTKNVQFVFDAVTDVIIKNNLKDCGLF
T3 sequence (P63096 with tags, fused parts or gaps): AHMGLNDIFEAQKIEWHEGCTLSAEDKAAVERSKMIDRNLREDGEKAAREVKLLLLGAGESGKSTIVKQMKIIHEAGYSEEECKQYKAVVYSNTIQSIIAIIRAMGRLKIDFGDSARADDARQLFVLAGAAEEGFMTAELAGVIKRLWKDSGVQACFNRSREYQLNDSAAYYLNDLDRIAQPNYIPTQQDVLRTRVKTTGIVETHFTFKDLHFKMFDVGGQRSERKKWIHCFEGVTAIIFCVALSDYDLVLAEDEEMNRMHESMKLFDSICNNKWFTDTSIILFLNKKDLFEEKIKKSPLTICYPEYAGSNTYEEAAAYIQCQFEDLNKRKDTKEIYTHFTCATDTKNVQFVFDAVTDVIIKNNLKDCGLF
T4 sequence (P63096 with tags, fused parts or gaps): as above
Sequence of Gαs (P63092 1-380 isoform P63092-2): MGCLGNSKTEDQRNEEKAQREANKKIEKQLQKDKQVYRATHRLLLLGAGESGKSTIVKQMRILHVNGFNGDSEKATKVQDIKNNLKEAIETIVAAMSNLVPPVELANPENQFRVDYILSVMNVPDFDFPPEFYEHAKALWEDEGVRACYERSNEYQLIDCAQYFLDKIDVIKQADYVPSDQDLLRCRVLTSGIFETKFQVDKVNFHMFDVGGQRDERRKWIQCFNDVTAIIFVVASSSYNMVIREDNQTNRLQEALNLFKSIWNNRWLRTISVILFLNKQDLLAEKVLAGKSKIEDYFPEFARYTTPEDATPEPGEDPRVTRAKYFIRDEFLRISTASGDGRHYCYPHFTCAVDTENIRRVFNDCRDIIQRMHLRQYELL
T2 sequence (O95622 442-658): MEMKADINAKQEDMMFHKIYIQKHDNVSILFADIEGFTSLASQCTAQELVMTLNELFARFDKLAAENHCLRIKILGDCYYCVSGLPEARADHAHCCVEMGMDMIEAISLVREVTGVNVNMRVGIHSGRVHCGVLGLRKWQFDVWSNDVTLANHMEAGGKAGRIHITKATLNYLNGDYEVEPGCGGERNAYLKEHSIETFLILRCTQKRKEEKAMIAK
T2 sequence (Q08462 871-1082): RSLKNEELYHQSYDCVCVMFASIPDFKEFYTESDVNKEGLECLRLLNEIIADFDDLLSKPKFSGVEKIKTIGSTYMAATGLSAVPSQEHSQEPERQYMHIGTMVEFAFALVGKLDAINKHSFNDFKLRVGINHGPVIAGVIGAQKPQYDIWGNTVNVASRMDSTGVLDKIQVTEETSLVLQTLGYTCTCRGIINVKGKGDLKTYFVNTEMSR
T5 sequence (P63092 7-380 isoform P63092-2 Q213L limits assumed): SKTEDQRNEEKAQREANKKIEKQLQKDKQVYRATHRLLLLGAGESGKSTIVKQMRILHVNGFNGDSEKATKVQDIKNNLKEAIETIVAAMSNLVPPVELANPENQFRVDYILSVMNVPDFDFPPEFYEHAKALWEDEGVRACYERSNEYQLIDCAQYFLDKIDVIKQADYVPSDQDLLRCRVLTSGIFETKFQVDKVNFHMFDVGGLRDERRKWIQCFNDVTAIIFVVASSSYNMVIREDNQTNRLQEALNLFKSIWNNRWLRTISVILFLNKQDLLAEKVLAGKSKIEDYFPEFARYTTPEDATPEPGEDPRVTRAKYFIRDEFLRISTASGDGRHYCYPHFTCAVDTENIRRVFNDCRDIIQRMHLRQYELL

| SMILES | Kd (GDP-bound Gαs; GDP/Gαs) [nM] | koff (GDP-bound Gαs; GDP/Gαs) [s⁻¹] | kon (GDP-bound Gαs; GDP/Gαs) [M⁻¹ s⁻¹] | half-life at 10 μM [1] [min] | sensitivity of the nucleotide exchange step of Gαi (Gαi) | effect on the apparent rate of GTPγS binding (kapp) to Gαs (Gαs) | inhibition of forskolin-mediated, Gαs-independent adenylyl cyclase activation (adenylyl cyclase) | binding to GDP-bound Gαi1 (GDP-bound Gαi1) | binding to GppNHp-bound Gαi1 (GppNHp-bound Gαi1) | binding to GDP-bound Gαs (GDP-bound Gαs; highest concentration tested) | inhibition of Gαs Q227L mutant in the adenylyl cyclase activation assay [2] |
| --- | --- | --- | --- | --- | --- | --- | --- | --- | --- | --- | --- |
| CC[C@H](C)[C@@H]1NC(=O)[C@H](CC(C)C)NC(=O)[C@@H](Cc2ccc(O)cc2)NC(=O)CSC[C@@H](C(=O)NCC(N)=O)NC(=O)[C@@H]2CCCN2C(=O)[C@H](CC(C)C)NC(=O)[C@H](CC(N)=O)NC(=O)[C@H](CC(C)C)NC(=O)[C@H](C)NC(=O)[C@H](Cc2c[nH]c3ccccc23)NC(=O)[C@H](CCC(N)=O)NC(=O)[C@H](CCCNC(=N)N)NC(=O)[C@H](Cc2ccccc2)NC(=O)[C@H]([C@@H](C)O)NC1=O [GD20-F10L] ({CH2CO}-[dY]LITFRQWALNLPCG-NH2; thioether N-14) | 14.5 ± 0.4 | 0.00358 | 247000 | 2240 to 3020 | – | – | – | – | – | – | – |
| CC[C@H](C)[C@@H]1NC(=O)[C@H](C)NC(=O)[C@H](Cc2ccc(O)cc2)NC(=O)[C@H](C(C)C)NC(=O)[C@H](CO)NC(=O)[C@H](CCC(=O)O)NC(=O)[C@H](Cc2ccccc2)NC(=O)[C@@H](Cc2ccc(O)cc2)NC(=O)CSC[C@@H](C(=O)NCC(N)=O)NC(=O)[C@H](CC(C)C)NC(=O)[C@H]([C@@H](C)O)NC(=O)CNC(=O)[C@H](Cc2c[nH]c3ccccc23)NC1=O [GN13] ({CH2CO}-[dY]FESVYAIWGTLCG-NH2; thioether N-13) | – | – | – | – | much less sensitive | increased | did not inhibit | no detectable binding | no detectable binding | no detectable binding | inhibited |
